Measured values as given in patent US6579851B2, “Effects of glucagon-like peptide-1 (7-36) on antro-pyloro-duodenal motility” (Amylin Pharmaceuticals, Inc., priority 2000, dated 2003).
Marks after values point to notes of the source that are not given here.

Columns and labels:
[1] = Plasma pancreatic polypeptide immunoreactivity during intravenous GLP-1 infusion; assay type: in vivo, human
Protocol: All values were expressed as mean±SEM. […] Differences were considered significant at P<0.05.
(§1) All studies were performed after an overnight fast.
The plasma was stored at −20° C. until assayed.

antro-duodenal motility = assay: Antro-duodenal motility by perfusion manometry; assay type: in vivo, human; settings: for Duodenal Motility Contractions: sum of three duodenal side holes; for Antral Motility Contractions: sum of two antral side holes
Protocol: Inhibition of antro-duodenal activity is assessed directly by motility recordings using methods that are well known to the skilled artisan. Contractile events are analyzed with a computer and validated software (Katschinski et al., Gastroenterol. 103, 383-91 (1992)) and only peaks with amplitudes of at least 10 mmHg and a duration of at least 2 s are considered true contractions. Duodenal phase III is defined as the occurrence of regular contractions at a frequency of ≧10/min for at least 2 min in the duodenum propagated aborally.
In one embodiment, the data are analyzed in 10-min segments separately for antrum and duodenum by summarizing (frequency, motility index) or averaging (amplitude) the values derived from, the two antral and three duodenal side holes, respectively. Motility indexes are identified as the area under the contractions and are expressed in mmHg·s·min^−1. Antral contractions are determined to be antro-pyloro-duodenally propagated waves if the onset of the pressure wave recorded in the most proximal duodenal side hole, occurs within 5 sec after the onset of a pressure wave recorded in one of the antral side holes and if both wave are registered by all side holes in between.
as §1
Perfusion manometry was recorded using a nine-lumen duodenal sleeve/side-hole catheter (Dentsleeve, South Australia, Australia). The manometric assembly incorporated a 4.5 cm long sleeve sensor, two antral side-holes (2 cm apart), and three duodenal side-holes (2 cm apart), beginning at the proximal and distal end of the sleeve, respectively. Two more side-holes were positioned across the sleeve spaced 1.5 cm apart. An additional lumen located 12 cm distal to the sleeve sensor was used for duodenal perfusion.
The correct position of the duodenal probe with the sleeve array straddling the pylorus was fluoroscopically checked before start of each experiment, and monitored throughout each study by measuring the transmucosal potential difference at the distal antral and the proximal duodenal port, as previously described (Schirra et al. J Clin Invest 97, 92-103 (1996)). A difference of at least −15 mV indicated correct transpyloric position of the tube.
The motility channels were perfused at a rate of 0.3 ml/min using a low-compliance pneumohydraulic pump (Arndorfer Medical Specialists, Greendale, Wis.). Pressures were measured by external transducers. Data were simultaneously recorded on the screen of a multichannel chart system (PC Polygraph, Synectics Medical, Stockholm, Sweden) and stored in the memory of a personal computer. Data were sampled and digitized at 8 Hz followed by digital smoothing by a factor of 2.

[2] = during the experiments of the application
Protocol: Eleven healthy male volunteers, 23 to 28 years old and within 10% of ideal body weight, participated in the studies. None of them were taking medication, or suffering from gastrointestinal symptoms or systemic disease.
All studies were performed after an overnight fast. Two experiments were performed, separated by at least 1 week on subjects lying in a semirecumbent position. An indwelling catheter was inserted into an antecubital vein for intravenous infusions. A second catheter was inserted into a dorsal vein of the contralateral hand in a retrograde fashion for sampling of arterialized blood (Schirra et al. Proc Assoc Am Physicians 109, 84-97 (1997)).
On the interdigestive study day, 0.154 M saline was continuously perfused into the region of the lower duodenal flexure at a rate of 2.5 ml/min. […] On the postprandial study day, the same intravenous infusions were administered with an intraduodenal lipid perfusion at 2.5 kcal/min (2.5 ml/min, Lipofundin MCT 10%, Braun Co., Melsungen, Germany). This lipid preparation consisted of 50% medium-chain triglycerides (MCT) and 50% long-chain triglycerides (LCT, soya bean oil).

[3] = intraduodenal lipid, high dose 1.2 pmol·kg−1·min−1 iv.
[4] = intraduodenal lipid, low dose 0.4 pmol·kg−1·min−1 iv.
[5] = intraduodenal saline, high dose 1.2 pmol·kg−1·min−1 iv.
[6] = intraduodenal saline, low dose 0.4 pmol·kg−1·min−1 iv.
[7] = low dose GLP-1, interdigestive, duodenal saline

CC[C@H](C)[C@H](NC(=O)[C@H](Cc1ccccc1)NC(=O)[C@H](CCC(=O)O)NC(=O)[C@H](CCCCN)NC(=O)[C@H](C)NC(=O)[C@H](C)NC(=O)[C@H](CCC(N)=O)NC(=O)CNC(=O)[C@H](CCC(=O)O)NC(=O)[C@H](CC(C)C)NC(=O)[C@H](Cc1ccc(O)cc1)NC(=O)[C@H](CO)NC(=O)[C@H](CO)NC(=O)[C@@H](NC(=O)[C@H](CC(=O)O)NC(=O)[C@H](CO)NC(=O)[C@@H](NC(=O)[C@H](Cc1ccccc1)NC(=O)[C@@H](NC(=O)CNC(=O)[C@H](CCC(=O)O)NC(=O)[C@H](C)NC(=O)[C@@H](N)Cc1c[nH]cn1)[C@@H](C)O)[C@@H](C)O)C(C)C)C(=O)N[C@@H](C)C(=O)N[C@@H](Cc1c[nH]c2ccccc12)C(=O)N[C@@H](CC(C)C)C(=O)N[C@H](C(=O)N[C@@H](CCCCN)C(=O)NCC(=O)N[C@@H](CCCNC(=N)N)C(N)=O)C(C)C [GLP-1, glucagon-like peptide-1(7-36)amide]
Pancreatic polypeptide (AUC over basal) [1, 3]: −104.2 ± 71.1 pg/ml · 60 min | Pancreatic polypeptide (AUC over basal) [1, 4]: 7.7 ± 55.4*∥ pg/ml · 60 min | Pancreatic polypeptide (AUC over basal) [1, 5]: −128.9 ± 33.2 pg/ml · 60 min | Pancreatic polypeptide (AUC over basal) [1, 6]: −90.5 ± 32.7 pg/ml · 60 min | Antral Amplitude (antro-duodenal motility; [3]): 23.0 ± 2.7 mmHg | Antral Motility Index (antro-duodenal motility; [3]): 628 ± 249 mmHg*s/60 min | Duodenal Amplitude (antro-duodenal motility; [3]): 19.2 ± 3.1 mmHg | Duodenal Motility Index (antro-duodenal motility; [3]): 1174 ± 499 mmHg*s/60 min | Duodenal Motility Contractions (antro-duodenal motility; [3]): 16.6 ± 5.9 number / 60 min | Antral Motility Contractions (antro-duodenal motility; [3]): 9.2 ± 2.9 number / 60 min | Antral Amplitude (antro-duodenal motility; [4]): 23.6 ± 3.1 mmHg | Antral Motility Index (antro-duodenal motility; [4]): 880 ± 351 mmHg*s/60 min | Duodenal Amplitude (antro-duodenal motility; [4]): 26.0 ± 3.3 mmHg | Duodenal Motility Index (antro-duodenal motility; [4]): 2776 ± 890 mmHg*s/60 min | Duodenal Motility Contractions (antro-duodenal motility; [4]): 29.5 ± 5.8 number / 60 min | Antral Motility Contractions (antro-duodenal motility; [4]): 12.1 ± 4.1 number / 60 min | Antral Amplitude (antro-duodenal motility; [5]): 21.1 ± 3.1 mmHg | Antral Motility Index (antro-duodenal motility; [5]): 957 ± 322 mmHg*s/60 min | Antro-Pyloro-Duodenal Propagated Contractions (antro-duodenal motility; [5]): 0.0* number/60 min | Duodenal Amplitude (antro-duodenal motility; [5]): 17.5 ± 1.9 mmHg | Duodenal Motility Index (antro-duodenal motility; [5]): 1119 ± 226 mmHg*s/60 min | Duodenal Motility Contractions (antro-duodenal motility; [5]): 16.6 ± 3.9 number / 60 min | Antral Motility Contractions (antro-duodenal motility; [5]): 9.6 ± 2.8 number / 60 min | Antral Amplitude (antro-duodenal motility; [6]): 31.1 ± 3.1 mmHg | Antral Motility Index (antro-duodenal motility; [6]): 1478 ± 564 mmHg*s/60 min | Antro-Pyloro-Duodenal Propagated Contractions (antro-duodenal motility; [6]): 0.0* number/60 min | Duodenal Amplitude (antro-duodenal motility; [6]): 25.0 ± 2.5 mmHg | Duodenal Motility Index (antro-duodenal motility; [6]): 3447 ± 1624 mmHg*s/60 min | Duodenal Motility Contractions (antro-duodenal motility; [6]): 36.0 ± 14.7 number / 60 min | Antral Motility Contractions (antro-duodenal motility; [6]): 12.6 ± 2.8 number / 60 min | Onset of inhibition of antro-duodenal motility after starting GLP-1 (antro-duodenal motility; [7]): ≤ 2 min | Time to nearly complete inhibition of antro-duodenal motility (antro-duodenal motility; [7]): ≤ 20 min | Hypoglycemia and other side effects [2]: did not cause hypoglycemia
